For assay [1], the target named is T1, BTK enzyme (Homo sapiens, UniProt Q06187).
T1 construct: purchased Upstate 14-552
Briefly: In vitro BTK kinase assay: BTK-POLYGAT-LS assay. In kind it is biochemical. The settings on record: ATP 10 μM, read-out: IC50 (10uMATP). In short, it runs like this: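 Human BTK activity was measured with final 10 μM ATP and 100 nM polyGAT substrate in pH 7.5 Tris buffer with 10 mM MgCl2, DTT, Triton X-100 and casein.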

Assay [2] has as its target BTK (phospho-BTK) in human whole blood (Homo sapiens, UniProt Q06187). Briefly: In vitro PD assay in human whole blood (pBTK assay).

IC50 data for 25 compounds are collected here from patent publication US10759783B2, “Biaryl inhibitors of Bruton'S tyrosine kinase” (BIOGEN MA INC., priority 2013, dated 2020).

The structures appear in SMILES notation. Where only a bound is given, the exact number is not on record here.

The IC50 is the point on the concentration scale where inhibition reaches its midpoint.

T1 sequence (Q06187 whole entry): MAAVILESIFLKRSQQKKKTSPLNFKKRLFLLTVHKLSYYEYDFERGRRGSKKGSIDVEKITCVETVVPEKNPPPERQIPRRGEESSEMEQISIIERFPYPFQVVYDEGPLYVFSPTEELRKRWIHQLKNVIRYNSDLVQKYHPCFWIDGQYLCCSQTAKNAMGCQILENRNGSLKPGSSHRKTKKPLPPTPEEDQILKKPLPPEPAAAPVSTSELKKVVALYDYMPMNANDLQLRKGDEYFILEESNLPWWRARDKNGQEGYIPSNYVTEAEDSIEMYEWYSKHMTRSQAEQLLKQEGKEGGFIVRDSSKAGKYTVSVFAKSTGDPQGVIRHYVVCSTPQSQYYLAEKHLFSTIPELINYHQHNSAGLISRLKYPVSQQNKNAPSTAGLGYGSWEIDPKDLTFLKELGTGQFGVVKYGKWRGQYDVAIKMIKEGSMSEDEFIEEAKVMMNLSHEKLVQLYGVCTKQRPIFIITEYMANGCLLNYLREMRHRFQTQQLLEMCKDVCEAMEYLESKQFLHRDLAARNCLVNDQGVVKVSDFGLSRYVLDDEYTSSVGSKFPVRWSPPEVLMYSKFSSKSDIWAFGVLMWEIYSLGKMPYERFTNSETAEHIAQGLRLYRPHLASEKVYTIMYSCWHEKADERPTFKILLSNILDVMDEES
Chain of BTK (phospho-BTK) in human whole blood (Q06187 whole entry): as above

`Cc1cc(-c2ccnc(Nc3cnn(C(C)C)c3)n2)ccc1CNC(=O)N1CC(OC(C)C)C1` [Example I-259, 3-isopropoxy-N-[[4-[2-[(1-isopropylpyrazol-4-yl)amino]pyrimidin-4-yl]-2-methyl-phenyl]methyl]azetidine-1-carboxamide]: the figures for the IC50 in assay [1] and in assay [2] were under 10 nM and under 500 nM, respectively.

Turning to `CC(C)(C)OC1CN(C(=O)NC2CCCCc3cc(-c4ccnc(Nc5cnn(CCO)c5)n4)ccc32)C1` (stereo not shown) [Example I-178, 3-(tert-butoxy)-N-(2-(2-((1-(2-hydroxyethyl)-1H-pyrazol-4-yl)amino)pyrimidin-4-yl)-6,7,8,9-tetrahydro-5H-benzo[7]annulen-5-yl)azetidine-1-carboxamide], the values for the IC50 in assay [1] and in assay [2] were under 10 nM and under 500 nM, respectively.

Turning to `Cn1cc(Nc2nccc(-c3ccc(CNC(=O)c4cnc(C(C)(C)C)s4)c(C(F)(F)F)c3)n2)cn1` [Example I-116, 2-(tert-butyl)-N-(4-(2-((1-methyl-1H-pyrazol-4-yl)amino)pyrimidin-4-yl)-2-(trifluoromethyl)benzyl)thiazole-5-carboxamide], the figures for the IC50 in assay [1] and in assay [2] were under 10 nM and 500 to 1500 nM, respectively.

For `Cc1cc(-c2ccnc(Nc3cnn(C4CN(C)C4)c3)n2)ccc1CNC(=O)c1cnc(C(C)(C)C)s1` [Example I-43, 2-(tert-butyl)-N-(2-methyl-4-(2-((1-(1-methylazetidin-3-yl)-1H-pyrazol-4-yl)amino)pyrimidin-4-yl)benzyl)thiazole-5-carboxamide], the IC50 in assay [1] was under 10 nM; in assay [2], under 500 nM.

In the case of `Cc1cc(-c2cc(Nc3ccc(N4CCN(C)CC4)cn3)ncn2)ccc1CNC(=O)N1CC(OC(C)(C)C)C1` [Example I-251, 3-tert-butoxy-N-[[2-methyl-4-[6-[[5-(4-methylpiperazin-1-yl)-2-pyridyl]amino]pyrimidin-4-yl]phenyl]methyl]azetidine-1-carboxamide], the IC50 in assay [1] was under 10 nM; in assay [2], under 500 nM.

Turning to `COCCn1cc(Nc2nccc(-c3ccc4c(c3)CCCCC4NC(=O)N3CC(OC(C)(C)C)C3)n2)cn1` (stereo not shown) [Example I-175, 3-(tert-butoxy)-N-(2-(2-((1-(2-methoxyethyl)-1H-pyrazol-4-yl)amino)pyrimidin-4-yl)-6,7,8,9-tetrahydro-5H-benzo[7]annulen-5-yl)azetidine-1-carboxamide], the IC50 is under 10 nM in assay [1] and under 500 nM in assay [2].

`Cc1cc(-c2ccnc(Nc3cnn4c3CCC4)n2)ccc1CNC(=O)N1CCC(C(C)(C)C)C1` (stereo not shown) [Example I-194, 3-(tert-butyl)-N-(4-(2-((5,6-dihydro-4H-pyrrolo[1,2-b]pyrazol-3-yl)amino)pyrimidin-4-yl)-2-methylbenzyl)pyrrolidine-1-carboxamide]: the IC50 in assay [1] is under 10 nM; in assay [2] it was under 500 nM.

`Cc1cc(-c2cc(Nc3cc4n(n3)CCCNC4)ncn2)ccc1CNC(=O)N1CC(OC(C)C)C1` [Example I-273, 3-isopropoxy-N-[[2-methyl-4-[6-(5,6,7,8-tetrahydro-4H-pyrazolo[1,5-a][1,4]diazepin-2-ylamino)pyrimidin-4-yl]phenyl]methyl]azetidine-1-carboxamide]: the IC50 in assay [1] is under 10 nM; in assay [2], under 500 nM.

Turning to `COCCc1cc(-c2ccnc(Nc3cnn4c3CCC4)n2)ccc1CNC(=O)N1CC[C@@H](C(C)(C)C)C1` [Example I-325, (3S)-3-tert-butyl-N-[[4-[2-(5,6-dihydro-4H-pyrrolo[1,2-b]pyrazol-3-ylamino)pyrimidin-4-yl]-2-(2-methoxyethyl)phenyl]methyl]pyrrolidine-1-carboxamide], the IC50 is under 10 nM in assay [1] and under 500 nM in assay [2].

Take `COCCn1cc(Nc2nccc(-c3ccc4c(c3)CCCCC4NC(=O)N3CC(OC(C)C)C3)n2)cn1` (stereo not shown) [Example I-171, 3-isopropoxy-N-(2-(2-((1-(2-methoxyethyl)-1H-pyrazol-4-yl)amino)pyrimidin-4-yl)-6,7,8,9-tetrahydro-5H-benzo[7]annulen-5-yl)azetidine-1-carboxamide]: the IC50 in assay [1] is under 10 nM; in assay [2], under 500 nM.

As to `COCCn1cc(Nc2nccc(-c3ccc(CNC(=O)N4CC(OC(C)C)C4)c(C)c3)n2)cn1` [Example I-213, 3-isopropoxy-N-(4-(2-((1-(2-methoxyethyl)-1H-pyrazol-4-yl)amino)pyrimidin-4-yl)-2-methylbenzyl)azetidine-1-carboxamide], the IC50 was under 10 nM in assay [1] and under 500 nM in assay [2].

Turning to `CC(C)CN1CCN(Cc2ccc(-c3ccnc(Nc4cnn(CCO)c4)n3)cc2C(F)(F)F)C(=O)C1` [Example I-310, 1-[[4-[2-[[1-(2-hydroxyethyl)pyrazol-4-yl]amino]pyrimidin-4-yl]-2-(trifluoromethyl)phenyl]methyl]-4-isobutyl-piperazin-2-one], the IC50 in assay [1] was under 10 nM; in assay [2], under 500 nM.

Consider `CCn1cc(Nc2nccc(-c3ccc4c(c3)CCCCC4NC(=O)N3CC(OC(C)(C)C)C3)n2)cn1` (stereo not shown) [Example I-173, 3-(tert-butoxy)-N-(2-(2-((1-ethyl-1H-pyrazol-4-yl)amino)pyrimidin-4-yl)-6,7,8,9-tetrahydro-5H-benzo[7]annulen-5-yl)azetidine-1-carboxamide], for which the IC50 in assay [1] is under 10 nM; in assay [2], under 500 nM.

Turning to `Cc1cc(-c2ccnc(Nc3cnn([C@H]4CCNC4)c3)n2)ccc1CNC(=O)c1cnc(C(C)(C)C)s1` [Example I-124, (S)-2-(tert-butyl)-N-(2-methyl-4-(2-((1-(pyrrolidin-3-yl)-1H-pyrazol-4-yl)amino)pyrimidin-4-yl)benzyl)thiazole-5-carboxamide], the results for the IC50 in assay [1] and in assay [2] were under 10 nM and under 500 nM, respectively.

On to `Cc1cc(-c2ccnc(Nc3cnn(C4CN(C)C4)c3)n2)ccc1CNC(=O)N1CC(OC(C)(C)C)C1` [Example I-215, 3-(tert-butoxy)-N-(2-methyl-4-(2-((1-(1-methylazetidin-3-yl)-1H-pyrazol-4-yl)amino)pyrimidin-4-yl)benzyl) azetidine-1-carboxamide], for which the IC50 in assay [1] is under 10 nM; in assay [2], under 500 nM.

For the compound `Cc1cc(-c2ccnc(Nc3cnn([C@H]4CC[C@H](C(=O)O)CC4)c3)n2)ccc1CNC(=O)c1cnc(C(C)(C)C)s1` [Example I-49, trans-4-(4-((4-(4-((2-(tert-butyl)thiazole-5-carboxamido)methyl)-3-methylphenyl)pyrimidin-2-yl)amino)-1H-pyrazol-1-yl)cyclohexanecarboxylic acid], the results for the IC50 in assay [1] and in assay [2] were under 10 nM and under 500 nM, respectively.

`Cc1cc(-c2cc(Nc3cc4n(n3)CCCN(CCO)C4)ncn2)ccc1CNC(=O)N1CC(OC(C)C)C1` [Example I-274, N-[[4-[6-[[5-(2-hydroxyethyl)-4,6,7,8-tetrahydropyrazolo[1,5-a][1,4]diazepin-2-yl]amino]pyrimidin-4-yl]-2-methyl-phenyl]methyl]-3-isopropoxy-azetidine-1-carboxamide]: the figures for the IC50 in assay [1] and in assay [2] were under 10 nM and under 500 nM, respectively.

`Cc1cc(-c2ccnc(Nc3cnn(C[C@H](N)CO)c3)n2)ccc1CNC(=O)c1cnc(C(C)(C)C)s1` [Example I-131, (S)—N-(4-(2-((1-(2-amino-3-hydroxypropyl)-1H-pyrazol-4-yl)amino)pyrimidin-4-yl)-2-methylbenzyl)-2-(tert-butyl)thiazole-5-carboxamide]: the IC50 in assay [1] is under 10 nM; in assay [2] it was 500 to 1500 nM.

Compound `[2H]C([2H])([2H])C(OC1CN(C(=O)NCc2ccc(-c3ccnc(Nc4cnn(CC)c4)n3)cc2C)C1)C([2H])([2H])[2H]` [Example I-262, N-[[4-[2-[(1-ethylpyrazol-4-yl)amino]pyrimidin-4-yl]-2-methyl-phenyl]methyl]-3-(1,1,1,3,3,3-d6)isopropoxy-azetidine-1-carboxamide] came in with an IC50 in assay [2] of under 500 nM.

With `Cn1cc(Nc2nccc(-c3ccc4c(c3)CCCCC4NC(=O)c3cnn(C(C)(C)C)c3)n2)cn1` (stereo not shown) [Example I-257, 1-tert-butyl-N-[2-[2-[(1-methylpyrazol-4-yl)amino]pyrimidin-4-yl]-6,7,8,9-tetrahydro-5H-benzo[7]annulen-5-yl]pyrazole-4-carboxamide], in assay [2], the IC50 was under 500 nM.

For the compound `Cc1cc(-c2ccnc(Nc3ccc(N4CCN(C)CC4)cn3)n2)ccc1CNC(=O)c1cc2c(s1)CCNC2` [Example I-119, N-(2-methyl-4-(2-((5-(4-methylpiperazin-1-yl)pyridin-2-yl)amino)pyrimidin-4-yl)benzyl)-4,5,6,7-tetrahydrothieno[3,2-c]pyridine-2-carboxamide], the IC50 in assay [1] fell in the range of 100 to 999 nM.

As for `Nc1nccc(-c2cnc(CNC(=O)c3cc4c(s3)CCCC4)c(F)c2)n1` [Example I-113, N-((5-(2-aminopyrimidin-4-yl)-3-fluoropyridin-2-yl)methyl)-4,5,6,7-tetrahydrobenzo[b]thiophene-2-carboxamide], in assay [1], the IC50 fell in the range of 100 to 999 nM.

Consider `CC(=O)Nc1cc(-c2ccc(CNC(=O)c3cc4c(s3)CCCC4)c(C)c2)ncn1` [Example I-143, N-(4-(6-acetamidopyrimidin-4-yl)-2-methylbenzyl)-4,5,6,7-tetrahydrobenzo[b]thiophene-2-carboxamide], for which, in assay [1], the IC50 is under 10 nM.

`Cc1cc(-c2cc(Nc3nnn(C)n3)ncn2)ccc1CNC(=O)c1cnc(C(C)(C)C)s1` [Example I-68, 2-(tert-butyl)-N-(2-methyl-4-(6-((2-methyl-2H-tetrazol-5-yl)amino)pyrimidin-4-yl)benzyl)thiazole-5-carboxamide]: the IC50 in assay [1] lay within 10 to 99 nM.

On to `Cc1cc(-c2ccnc(Nc3cnn(C)c3)n2)ccc1CNC(=O)c1cc2n(n1)CCCC2` [Example I-159, N-(2-Methyl-4-(2-((1-methyl-1H-pyrazol-4-yl)amino)pyrimidin-4-yl)benzyl)-4,5,6,7-tetrahydropyrazolo[1,5-a]pyridine-2-carboxamide], for which the IC50 in assay [1] was under 10 nM.
